Assay results reported in patent publication US5389621A, “Method of enhancing the anticoagulant effects of aspirin using salicylamide” (University of Medicine and Dentistry of New Jersey, priority 1994, dated 1995).
“Also recorded” adds a separate entry of the source. Each block holds one compound with its values, some of them ahead of it.

How the values were obtained:
Type in all cases: in vivo, male Sprague-Dawley rats
[1] = Plasma kinetics of total 14C after oral 14C-aspirin alone or with salicylamide; settings: for Effect on AUC.infin. of 14C / Effect on total body clearance (ClT) of 14C: after 14C-ASA; for AUC.infin. of 14C: mean ± SE, n=6
Method: (§1) Male adult Sprague-Dawley rats (300-325 gm) obtained from Charles River Breeding Laboratory, N. Wilmington, Mass. were quarantined for one week. All animals were identified by ear punching. Food and water were provided ad libitum. The animals were maintained on rodent lab chow diet in a controlled environment with 50% humidity and 12 hour light/dark cycle.
Two dose combinations were employed. The low dose was 10 and/or 3 mg/kg of ASA and/or SAM, respectively, while the high dose was double the low dose. These doses were approximately equal (w/w) to that in commercially available combinations, e.g., BC® formula, when administered to humans.
Rats were divided into 2 groups; the first group consisted of 30 rats which were assigned to 5 subgroups, 6 rats each, according to the following treatment scheme:
The second group consisted of 4 subgroups and were administered double the dose received by the first group (with the exception of subgroup III).
The rats were fasted overnight (~18 hr.) before administration of the treatments and were allowed water ad libitum. The drug(s) to be given were prepared fresh in the morning of the study, dissolved in 2.5 ml of deionized water and gavaged to rats.
The specific activity of ASA was 739 and 369 dpm/μg for the low and high dose treatments, respectively.
The samples were collected by heparinized plastic syringes and transferred to polyethylene test tubes. The samples, ~300 μl each, were rapidly centrifuged at 1800×g for 15 minutes at 4° C.
The terminal elimination rate constant (ke) was estimated by linear regression of the terminal β phase of the plasma concentration vs. time curves. The area under the curve (AUC.infin.) was calculated by using the trapezoidal method from zero to the last measured plasma concentration. The half-life of elimination (t1/2β) was obtained by the equation t1/2β =0.693/ke.
Total body clearance (ClT) was estimated by the equation ClT =Dose/AUC assuming a complete absorption of ASA and SAM (Iwamoto et al., 1982; Iwamoto et al., 1983). The apparent volume of distribution Vd was calculated from the formula, Vd =ClT /ke.

[2] = Tissue distribution of 14C radioactivity after 14C-aspirin; settings: for Tissue with the highest 14C concentration: 14C-ASA alone or with SAM, low dose
Method: as §1
(§2) Forty-eight rats were divided into two groups. The first group of rats was administered ASA, SAM or their combination in a dose approximately equal (w/w) to that in the commercially available combinations, e.g., BC® formula, when administered to humans, i.e., 10 and 3 mg/kg of ASA and SAM, respectively. The second group was administered double the dosage received by the first group.
Each group consisted of 24 rats and was further divided into 4 subgroups, 6 rats each, according to the following scheme:
The rats were fasted overnight. The drug(s) were prepared fresh, dissolved in 2.5 ml of deionized water and administered orally by gavage needle. The rats were allowed water ad libitum before and after the oral administration.
The different treatments were given according to the previous scheme and each rat received an amount of radioactivity equal to […] in the case of radioactive aspirin and 10 μCu in the case of radioactive salicylamide.
(§3) The rats were anesthetized by light diethyl ether inhalation. A blood sample of nearly 3 ml was collected by cardiac puncture 1.5 hours after oral administration. The blood was transferred to chilled polyethylene tubes containing 30 μl of 50% (w/w) potassium fluoride to prevent hydrolysis of ASA. A 300 μl aliquot was pipetted in a scintillation vial to study the distribution in whole blood. The rest of the collected blood was immediately centrifuged at 1800×g for 10 minutes at 4° C. and the plasma was decanted. 100 μl of the plasma were pipetted in a scintillation vial for measurement of the total radioactivity and the rest of the plasma was stored immediately at -70° C. for later study of the distribution of the metabolites.
300 μl of the pellet of red blood cells was pipetted in a scintillation vial to study the distribution in red blood cells. The rest of the red blood cells were washed twice by adding 2 ml of physiological saline and were resuspended after each addition.
After collecting the blood sample, the rats were sacrificed immediately by a diethyl ether overdose. The following tissues were collected: liver, lung, kidney, heart, spleen, perinephric fat, brain, upper small intestine, stomach, pancreas, bone (femur and tibia), testis, skin and skeletal muscle. A sample of bone marrow was also collected (approximately20 mg).
300 mg tissue samples were placed in scintillation vials and 300 μl of 70% perchloric acid and 600 μl of 30% hydrogen peroxide were added to each vial and also to the vials containing the washed red blood cells aliquots. The vials were incubated at 75° C. for 1 hour in a shaking water bath and were tightly capped to prevent any loss of radioactivity by evaporation.
The vials were left to cool to room temperature for 15 minutes before 10 ml Aquasol-2 scintillation fluid was added to each vial. The total radioactivity was counted in a Beckman model 7500 LS spectrophotometer.

[3] = Tightly protein-bound 14C radioactivity after 14C-aspirin
Method: as §2, §3
The plasma tightly protein-bound activity was measured by adding 100 μl of 10% trichloroacetic acid (TCA) to 100 μl of plasma in microcentrifuge tubes and vortexing the contents for 1 minute followed by centrifugation at 1800×g for 10 minutes. The supernatant was decanted and the tubes with the pellets in them were placed in scintillation vials each containing 15 ml of Aquasol-2 scintillation fluid. […] The radioactivity in the scintillation vials was counted in Beckman LS counter.

[4] = oral 14C-ASA 10 mg/kg, alone or with SAM 3 mg/kg
[5] = oral 14C-ASA 20 mg/kg, alone or with SAM 6 mg/kg
[6] = 1.5 hr, 14C-ASA 10 mg/kg, alone or with SAM 3 mg/kg
[7] = 1.5 hr, 14C-ASA 20 mg/kg, alone or with SAM 6 mg/kg
[8] = 1.5 hr, oral 14C-ASA 10 mg/kg, alone or with SAM 3 mg/kg
[9] = 1.5 hr, oral 14C-ASA 20 mg/kg, alone or with SAM 6 mg/kg

Duration of the SAM effect on plasma 14C ([1]; following coadministration with 14C-ASA): approximately 4 hours | Increase of Cmax of total 14C by SAM ([1]; high dose 14C-ASA coadministration): ~25% | Effect of SAM on 14C-ASA absorption half-life ([1]; rat, in vivo): no effect | Change of 14C distribution in plasma, skin, testis and brain ([2]; 14C-ASA 20 mg/kg with SAM 6 mg/kg vs 14C-ASA alone): significant increase | Change of 14C radioactivity and 14C-SA in plasma, liver and lung ([2]; SAM with 14C-ASA): discernable and parallel increase | Change of tightly protein-bound 14C, high dose ([3]; 14C-ASA with SAM 20/6 mg/kg): did not reach significant levels | Change of tightly protein-bound 14C in kidney ([3]; low and high doses): not influenced
Structure (SMILES): NC(=O)c1ccccc1O [SAM, Salicylamide]
Effect on AUC.infin. of 14C [1]: further increased, albeit not significantly | Effect on total body clearance (ClT) of 14C [1]: tended to decrease the ClT after the high dose combination | Effect of SAM coadministration on Cmax / plasma level of total 14C ([1]; with 14C-ASA): enhanced maximum plasma concentration (Cmax) of total ^14 C dose-dependently; also recorded: dose-dependently increases the plasma level of total ^14 C radioactivity | Tissue with the highest 14C concentration ([2]; 1.5 hr): plasma attained the highest concentration | Change of 14C activity in stomach (gastric mucosa) ([2]; 1.5 hr, 14C-ASA/SAM 10/3 mg/kg vs 14C-ASA 10 mg/kg): lower concentration of ^14 C radioactivity

Structure (SMILES): CC(=O)Oc1ccccc1[14C](=O)O [^14 C-ASA]
Effect on AUC.infin. of 14C [1]: showed a dose dependent increase | Effect on total body clearance (ClT) of 14C [1]: decreased dose-dependently | T1/2β of 14C ([1]; high dose, 14C-ASA alone or with SAM): 5.1 h | Elimination half-life of 14C ([1]; low dose of 14C-ASA alone or in combination with SAM, from 6-24 hour plasma concentrations, 10 mg/kg): 2.8 to 3.2 h | AUC4hr of 14C (first 4 hr) [1, 4]: 99.6 ± 10.6 µg·h/mL | C1T total body clearance of 14C [1, 4]: 10.3 ± 1.1 mL/h | Cmax of 14C [1, 4]: 29900 ± 2300 ng/mL | T1/2abs absorption half-life of 14C [1, 4]: 9.1 ± 1.1 min | T1/2β elimination half-life of 14C [1, 4]: 3.2 ± 0.2 h | Vd apparent volume of distribution of 14C [1, 4]: 46.1 ± 2.4 mL | AUC.infin. of 14C [1, 4]: 345.7 ± 38.3 µg·h/mL | AUC4hr of 14C (first 4 hr) [1, 5]: 222.2 ± 15.3 µg·h/mL | C1T total body clearance of 14C [1, 5]: 7.7 ± 0.8 mL/h | Cmax of 14C [1, 5]: 65100 ± 8200 ng/mL | T1/2abs absorption half-life of 14C [1, 5]: 8.9 ± 0.9 min | Vd apparent volume of distribution of 14C [1, 5]: 85.5 ± 28.1 mL | AUC.infin. of 14C [1, 5]: 810.6 ± 81.7 µg·h/mL | 14C radioactivity in RBCs [2, 6]: 4.2 ± 1.2 μg/gm tissue | 14C radioactivity in blood [2, 6]: 17.1 ± 3.1 μg/gm tissue | 14C radioactivity in bone [2, 6]: 2.7 ± 0.08 μg/gm tissue | 14C radioactivity in bone marrow [2, 6]: 0.24 ± 0.05 μg/50 mg of bone marrow | 14C radioactivity in brain [2, 6]: 1.5 ± 0.1 μg/gm tissue | 14C radioactivity in fat [2, 6]: 3.3 ± 0.1 μg/gm tissue | 14C radioactivity in heart [2, 6]: 5.6 ± 0.5 μg/gm tissue | 14C radioactivity in kidney [2, 6]: 15.1 ± 0.9 μg/gm tissue | 14C radioactivity in liver [2, 6]: 7.9 ± 0.9 μg/gm tissue | 14C radioactivity in lung [2, 6]: 7.3 ± 0.5 μg/gm tissue | 14C radioactivity in muscle [2, 6]: 3.5 ± 0.2 μg/gm tissue | 14C radioactivity in pancreas [2, 6]: 5.7 ± 0.4 μg/gm tissue | 14C radioactivity in plasma [2, 6]: 35.5 ± 1.7 μg/gm tissue | 14C radioactivity in skin [2, 6]: 8.9 ± 0.4 μg/gm tissue | 14C radioactivity in spleen [2, 6]: 2.9 ± 0.6 μg/gm tissue | 14C radioactivity in stomach [2, 6]: 18.9 ± 3.3 μg/gm tissue | 14C radioactivity in testis [2, 6]: 5.1 ± 0.5 μg/gm tissue | 14C radioactivity in upper small intestine [2, 6]: 5.8 ± 0.6 μg/gm tissue | 14C radioactivity in washed RBCs [2, 6]: 1.5 ± 0.5 μg/gm tissue | 14C radioactivity in RBCs [2, 7]: 8.8 ± 1.2 μgm/gm tissue | 14C radioactivity in blood [2, 7]: 36.1 ± 3.5 μgm/gm tissue | 14C radioactivity in bone [2, 7]: 7.1 ± 0.6 μgm/gm tissue | 14C radioactivity in bone marrow [2, 7]: 0.79 ± 0.03 μgm/50 mg bone marrow | 14C radioactivity in brain [2, 7]: 4.1 ± 0.07 μgm/gm tissue | 14C radioactivity in fat [2, 7]: 4.5 ± 0.3 μgm/gm tissue | 14C radioactivity in heart [2, 7]: 17.5 ± 0.5 μgm/gm tissue | 14C radioactivity in kidney [2, 7]: 32.0 ± 3.2 μgm/gm tissue | 14C radioactivity in liver [2, 7]: 19.7 ± 0.9 μgm/gm tissue | 14C radioactivity in lung [2, 7]: 19.3 ± 0.7 μgm/gm tissue | 14C radioactivity in muscle [2, 7]: 9.5 ± 0.4 μgm/gm tissue | 14C radioactivity in pancreas [2, 7]: 12.6 ± 0.5 μgm/gm tissue | 14C radioactivity in plasma [2, 7]: 65.1 ± 1.91 μgm/gm tissue | 14C radioactivity in skin [2, 7]: 21.9 ± 0.6 μgm/gm tissue | 14C radioactivity in spleen [2, 7]: 10.0 ± 0.9 μgm/gm tissue | 14C radioactivity in stomach [2, 7]: 22.9 ± 4.6 μgm/gm tissue | 14C radioactivity in testis [2, 7]: 14.1 ± 0.6 μgm/gm tissue | 14C radioactivity in upper small intestine [2, 7]: 15.1 ± 1.0 μgm/gm tissue | 14C radioactivity in washed RBCs [2, 7]: 3.8 ± 0.9 μgm/gm tissue | Tissue with the highest 14C concentration ([2]; 1.5 hr): plasma attained the highest concentration | Tightly protein-bound 14C in heart [3, 8]: 2.30 ± 0.28 μg ^14 C/gm tissue | Tightly protein-bound 14C in kidney [3, 8]: 3.85 ± 0.30 μg ^14 C/gm tissue | Tightly protein-bound 14C in liver [3, 8]: 3.93 ± 0.04 μg ^14 C/gm tissue | Tightly protein-bound 14C in lung [3, 8]: 1.62 ± 0.14 μg ^14 C/gm tissue | Tightly protein-bound 14C in plasma [3, 8]: 26.95 ± 2.67 μg ^14 C/ml plasma | Tightly protein-bound 14C in heart [3, 9]: 5.79 ± 0.40 μg ^14 C/gm tissue | Tightly protein-bound 14C in kidney [3, 9]: 11.66 ± 0.29 μg ^14 C/gm tissue | Tightly protein-bound 14C in liver [3, 9]: 9.81 ± 0.12 μg ^14 C/gm tissue | Tightly protein-bound 14C in lung [3, 9]: 5.84 ± 0.40 μg ^14 C/gm tissue
